Among the test systems are BT-549 breast; HS 578T breast; KM12 colon; LOX IMVI melanoma; MDA-MB-231 breast; SNB-75 CNS.
Holding throughout (assay): NCI anticancer screen, dose series, 48 h

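48-hour exposure; five concentrations; linearly interpolated endpoints. GI50 = concentration required for 50% inhibition of growth. TGI marks complete inhibition of growth.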 Bounds are passed on as bounds.

In the case of `NS(=O)(=O)c1ccc(NC2(C(=O)O)CCCC2)cc1`, the TGI in the assay with BT-549 breast, in the assay on HS 578T breast, in the assay with KM12 colon, in the assay on LOX IMVI melanoma, in the assay on MDA-MB-231 breast and with SNB-75 CNS was more than 100 µM each time.

On to `O=C1OC(C(O)CO)C(=O)C1=O` (centres undefined), for which the GI50 in the assay on BT-549 breast was 4320 µM; in the assay on HS 578T breast it was 3250 µM; in the assay with KM12 colon, 3500 µM; with LOX IMVI melanoma, 1950 µM; with MDA-MB-231 breast, 2720 µM; in the assay on SNB-75 CNS, 6160 µM. Besides, the TGI was more than 10000 µM in the assay with BT-549 breast; 9940 µM in the assay with HS 578T breast; more than 10000 µM in the assay with KM12 colon; 4990 µM with LOX IMVI melanoma; more than 10000 µM in the assay on MDA-MB-231 breast; more than 10000 µM with SNB-75 CNS.

As to `O=C(N/N=C/c1ccc(Cl)cc1)c1ccc(C(F)(F)F)nc1Nc1cccc(C(F)(F)F)c1`, the GI50 is 2.72 µM with BT-549 breast; 2.98 µM in the assay on HS 578T breast; 2.31 µM in the assay on KM12 colon; 1.3 µM in the assay on LOX IMVI melanoma; 2.22 µM with MDA-MB-231 breast; 2.72 µM with SNB-75 CNS. For the same compound, the TGI in the assay on BT-549 breast worked out at 11.7 µM; in the assay with HS 578T breast, 10.2 µM; with KM12 colon it was 8.4 µM; in the assay with LOX IMVI melanoma, 8 µM; in the assay on MDA-MB-231 breast it was 8.83 µM; with SNB-75 CNS, 13.4 µM.

As to `C=C1C(=O)O[C@@H]2/C=C(\C)CC/C=C(/COC(C)=O)C[C@@H](OC(C)=O)[C@@H]12`, the TGI in the assay with BT-549 breast was 16.7 µM; in the assay with HS 578T breast it was more than 70.2 µM; with KM12 colon, 34.3 µM; in the assay on LOX IMVI melanoma, 13.1 µM; with MDA-MB-231 breast, 28.5 µM; in the assay on SNB-75 CNS, more than 100 µM.

With `N=C1C(c2nc3ccccc3s2)=C(O)CN1c1cc(C(F)(F)F)ccc1Cl`, the GI50 in the assay on BT-549 breast is 43.4 µM; in the assay on HS 578T breast, 35.7 µM; with KM12 colon, 20.5 µM; in the assay on LOX IMVI melanoma, 22.7 µM; in the assay with MDA-MB-231 breast, 12.1 µM; in the assay on SNB-75 CNS, 24.1 µM. In addition, the TGI with BT-549 breast was more than 100 µM; with HS 578T breast, more than 100 µM; with KM12 colon it was more than 100 µM; with LOX IMVI melanoma, more than 100 µM; in the assay on MDA-MB-231 breast, 95.7 µM; in the assay on SNB-75 CNS, more than 100 µM.

Regarding `COc1ccc(-c2n[nH]nc2-c2cc(OC)c(OC)c(OC)c2)cc1`, the GI50 with HS 578T breast, in the assay on KM12 colon, in the assay with LOX IMVI melanoma and in the assay with SNB-75 CNS was less than 0.01 µM each time. The TGI was more than 83.9 µM in the assay with HS 578T breast, 0.0445 µM with KM12 colon, more than 57 µM with LOX IMVI melanoma and 92.9 µM with SNB-75 CNS.

For `COC(=O)C1=CNC=C(C(=O)OC)C1C1=CC(=O)C(C)=CC1=O`, the GI50 is 18.2 µM with BT-549 breast; 25 µM in the assay with HS 578T breast; 17.1 µM with KM12 colon; 14 µM in the assay on LOX IMVI melanoma; 2.78 µM in the assay on MDA-MB-231 breast; 16 µM in the assay with SNB-75 CNS. Moreover, the TGI amounted to 34.3 µM with BT-549 breast; 66.5 µM with HS 578T breast; 31.8 µM in the assay with KM12 colon; 28.6 µM with LOX IMVI melanoma; 19.1 µM in the assay with MDA-MB-231 breast; 42 µM in the assay with SNB-75 CNS.

Turning to `COC1=C(C)C(=O)c2c(c(COC(N)=O)c3n2CC2C3N2C)C1=O` (centres undefined), the TGI in the assay with BT-549 breast was 0.167 µM; in the assay on HS 578T breast it was 0.986 µM; in the assay with KM12 colon, 0.143 µM; in the assay on LOX IMVI melanoma, 0.053 µM; in the assay with MDA-MB-231 breast, 0.409 µM; in the assay on SNB-75 CNS, less than 0.0446 µM.

Turning to `CC(C)n1nc(-c2cc3cc(O)ccc3[nH]2)c2c(N)ncnc21`, the GI50 with BT-549 breast is 0.147 µM; with HS 578T breast it was 0.109 µM; in the assay on KM12 colon it was 0.307 µM; in the assay with LOX IMVI melanoma, 0.309 µM; with MDA-MB-231 breast, 0.296 µM; in the assay with SNB-75 CNS, 0.0377 µM. The TGI in the assay with BT-549 breast turned out to be 1.85 µM; in the assay on HS 578T breast it was 0.503 µM; with KM12 colon, 10.8 µM; with MDA-MB-231 breast, 17.4 µM; in the assay on SNB-75 CNS, 0.502 µM.

As to `COc1ccc(Cn2cc3c(c2-c2ccccc2)CC(C)(C)c2cnoc2-3)cc1`, the GI50 in the assay with HS 578T breast is 1.45 µM; in the assay on KM12 colon, 0.783 µM; with LOX IMVI melanoma it was 3.55 µM; in the assay on MDA-MB-231 breast it was 3.46 µM; with SNB-75 CNS, 1.63 µM. Besides, the TGI in the assay on HS 578T breast is 7.91 µM; with KM12 colon, more than 100 µM; with LOX IMVI melanoma, more than 100 µM; with MDA-MB-231 breast, more than 100 µM; in the assay on SNB-75 CNS it was 6.15 µM.

For `O=S(=O)(N=S(c1ccccc1)c1ccccc1)c1ccccc1`, the TGI in the assay with BT-549 breast and in the assay with KM12 colon was more than 100 µM throughout.

As for `O=C(N/N=C/c1ccccc1)c1c(-c2cccnc2)cnc2ccccc12`, the TGI in the assay with BT-549 breast, with KM12 colon and in the assay with SNB-75 CNS was more than 100 µM each time.

Take `Cc1cccc(N2CCN(C(=S)c3ccc4c(c3)OCO4)CC2)c1`: the GI50 with HS 578T breast is 0.501 µM; with KM12 colon it was 0.514 µM; with LOX IMVI melanoma it was 1.88 µM; in the assay with MDA-MB-231 breast, 0.861 µM; in the assay on SNB-75 CNS it was 0.8 µM. In addition, the TGI was 5.58 µM in the assay with HS 578T breast; more than 100 µM in the assay with KM12 colon; more than 100 µM in the assay on LOX IMVI melanoma; more than 100 µM with MDA-MB-231 breast; 6.85 µM in the assay with SNB-75 CNS.

Consider `CC(C)(C)c1cc(C(C)(C)C)cc(S(=O)(=O)Nc2cc3ccccc3cc2C(=O)NCCN)c1`, for which the GI50 in the assay on BT-549 breast was 1.67 µM; in the assay on HS 578T breast it was 2.17 µM; with KM12 colon, 1.79 µM; in the assay on LOX IMVI melanoma, 1.6 µM; in the assay with SNB-75 CNS it was 1.58 µM. In addition, the TGI in the assay with BT-549 breast came to 3.09 µM; in the assay with HS 578T breast, 4.89 µM; with KM12 colon, 3.37 µM; in the assay with LOX IMVI melanoma, 3.02 µM; in the assay with SNB-75 CNS, 4.16 µM.

Regarding `OC[C@H]1CCCC1O` (some centres undefined), the TGI in the assay with BT-549 breast, in the assay with KM12 colon, in the assay on MDA-MB-231 breast and in the assay with SNB-75 CNS was more than 100 µM each time.

`Clc1ccc(C2=Nn3c(COc4ccccc4Cl)nnc3SC2)c(Cl)c1`: the GI50 is 18.8 µM in the assay with BT-549 breast; 15 µM in the assay on HS 578T breast; 16.9 µM in the assay with KM12 colon; 15.2 µM in the assay on LOX IMVI melanoma; 18.5 µM with MDA-MB-231 breast. Further, the TGI turned out to be 54.2 µM in the assay on BT-549 breast; 69 µM in the assay on HS 578T breast; 34 µM in the assay on KM12 colon; 28.7 µM in the assay with LOX IMVI melanoma; 48.6 µM in the assay on MDA-MB-231 breast.

Source of the values: PubChem BioAssay (NCI).
